Laboratory results: patent publication US8093385B2, “Leukotriene B4 inhibitors” (Hoffmann-La Roche Inc., priority 2007, dated 2012)
Where a name gives a salt, the structure may show the parent alone.

Test system: BLT1 and BLT2 receptors
Test: Ca2+ Flux Assay for LTB4 Antagonist Assay
Format: cell-based, Human
Settings: inhibition of LTB4-induced Ca2+ flux (FLIPR), Retinoic Acid induced HL-60 cells endogenously expressing BLT1 and BLT2
Protocol: Ca^2+ Flux Assay for LTB4 Antagonist Assay
Seventy two hours prior to experiment cells are counted using ViaCount reagent, centrifuged and resuspended at 2.0×10^5 cells /ml density with the complete growth media containing 1 μM Retinoic Acid (Sigma).
On a day of the experiment loading buffer (Calcium-3 Assay Kit, Molecular Devices) was prepared by dissolving the contents of one vial (Express Kit) into 500 ml Hank's Balanced Salt Solution containing 20 mM HEPES and 5 mM probenecid. Equal volume of the loading buffer was mixed with the replacement buffer (Hank's Balanced Salt Solution containing 20 mM HEPES, 0.05% BSA and 5 mM probenecid). Retinoic Acid induced HL-60 cells were counted using ViaCount reagent, centrifuged and resuspended at 2.0×10^6 cells /ml density with the loading buffer/replacement buffer, dispensed into 384 well black/clear microplates (Falcon)(25 μl/well) and placed in a 37° C./5% CO2 incubator for 1 hour.
During the incubation, test compounds were prepared at 6× the desired concentration in HBSS/20 mM HEPES/0.05% BSA as well as LTB4 (Biomol) was prepared at 2.2× concentration in HBSS/20 mM HEPES/0.5% BSA buffer.
After the incubation, both the cell and compound plates were brought to the FLIPR and 5 μl of the diluted compounds were transferred to the cell plates by the FLIPR. Plates were then incubated for 30min at room temperature. After the ½ hour incubation, plates were returned to the FLIPR and 25 μl of 2.2× LTB4 was added to the cell plates. During the assay, fluorescence readings were taken simultaneously from all 384 wells of the cell plate every 1.5 seconds. Five readings were taken to establish a stable baseline, then 25 μl (LTB4) of sample was rapidly and simultaneously added to each well of the cell plate. The fluorescence was continuously monitored before, during and after sample addition for a total elapsed time of 100 seconds. Responses (increase in peak fluorescence) in each well following agonist addition was determined. The initial fluorescence reading from each well, prior to ligand stimulation, was used a zero baseline value for the data from that well. The responses are expressed as % inhibition of the neutral control (neutral control: wells that received buffer plus DMSO but no test compound).

SMILES	IC50 [nM]
O=C(O)CCCOc1cccc(CCCCCCOc2cc(-c3cccc(F)c3)cc(-c3ccc4c(c3)OCO4)c2)c1CCC(=O)O [Example 17, 4-{3-[6-(5-Benzo[1,3]dioxol-5-yl-3′-fluoro-biphenyl-3-yloxy)-hexyl]-2-(2-carboxy-ethyl)-phenoxy}-butyric acid bis-sodium salt]	1.19

Same assay, conditions: inhibition of LTB4-induced Ca2+ flux (FLIPR), Retinoic Acid induced HL-60 cells endogenously expressing BLT1 and BLT2; read-out: IC50

SMILES	IC50 [nM]
O=C(O)CCCOc1cccc(CCCCCCOc2cc(-c3ccccc3)cc(-c3ccc(OC(F)(F)F)cc3)c2)c1CCC(=O)O [Example 70]	0.58
O=C(O)CCCOc1cccc(CCCCCCOc2cc(-c3ccncc3)cc(-c3ccsc3)c2)c1CCC(=O)O [Example 14, 4-{2-(2-Carboxy-ethyl)-3-[6-(3-pyridin-4-yl-5-thiophen-3-yl-phenoxy)-hexyl]-phenoxy}-butyric acid]	0.2
O=C(O)CCCOc1cccc(CCCCCCOc2cc(-c3ccnc(F)c3)cc(-c3ccnc(F)c3)c2)c1CCC(=O)O [Example 3, 4-[3-{6-[3,5-Bis-(2-fluoro-pyridin-4-yl)-phenoxy]-hexyl}-2-(2-carboxy-ethyl)-phenoxy]-butyric acid]	0.17
O=C(O)CCCOc1cccc(CCCCCCOc2cc(-c3ccncc3)cc(-c3ccc4c(c3)OCCO4)c2)c1CCC(=O)O [Example 24, 4-(2-(2-Carboxy-ethyl)-3-{6-[3-(2,3-dihydro-benzo[1,4]dioxin-6-yl)-5-pyridin-4-yl-phenoxy]-hexyl}-phenoxy)-butyric acid]	0.23
O=C(O)CCCOc1cccc(CCCCCCOc2cc(-c3ccsc3)cc(-c3ccc4c(c3)OCO4)c2)c1CCC(=O)O [Example 12, 4-{3-[6-(3-Benzo[1,3]dioxol-5-yl-5-thiophen-3-yl-phenoxy)-hexyl]-2-(2-carboxy-ethyl)-phenoxy}-butyric acid]	0.21
O=C(O)CCCOc1cccc(CCCCCCOc2cc(-c3ccsc3)cc(-c3ccsc3)c2)c1CCC(=O)O [Example 56, 4-{2-(2-Carboxy-ethyl)-3-[6-(3,5-di-thiophen-3-yl-phenoxy)-hexyl]-phenoxy}-butyric acid]	0.58
O=C(O)CCCOc1cccc(CCCCCCOc2cc(-c3cccnc3)cc(-c3cccnc3)c2)c1CCC(=O)O [Example 4, 4-{2-(2-Carboxy-ethyl)-3-[6-(3,5-di-pyridin-3-yl-phenoxy)-hexyl]-phenoxy}-butyric acid]	0.64
O=C(O)CCCOc1cccc(CCCCCCCc2cc(-c3ccc4c(c3)OCO4)cc(-c3ccc4c(c3)OCO4)c2)c1CCC(=O)O [Example 52, 4-[3-[7-(3,5-Bis-benzo[1,3]dioxol-5-yl-phenyl)-heptyl]-2-(2-carboxy-ethyl)-phenoxy]-butyric acid]	42.5
O=C(O)CCCOc1cccc(CCCCCCNc2cc(-c3ccsc3)cc(-c3ccsc3)c2)c1CCC(=O)O [Example 35, 4-{2-(2-Carboxy-ethyl)-3-[6-(3,5-di-thiophen-3-yl-phenylamino)-hexyl]-phenoxy}-butyric acid]	99.1
O=C(O)CCCOc1cccc(CCCCCCOc2cc(-c3ccncc3)cc(-c3ccc4c(c3)OCO4)c2)c1CCC(=O)O [Example 20, 4-{3-[6-(3-Benzo[1,3]dioxol-5-yl-5-pyridin-4-yl-phenoxy)-hexyl]-2-(2-carboxy-ethyl)-phenoxy}-butyric acid]	0.21
O=C(O)CCCOc1cccc(CCCCCCOc2cc(-c3cncnc3)cc(-c3ccsc3)c2)c1CCC(=O)O [Example 16, 4-{2-(2-Carboxy-ethyl)-3-[6-(3-pyrimidin-5-yl-5-thiophen-3-yl-phenoxy)-hexyl]-phenoxy}-butyric acid]	0.39
O=C(O)CCCOc1cccc(CCCCCCOc2cc(-c3ccccn3)cc(-c3ccccn3)c2)c1CCC(=O)O [Example 26, 4-(2-(2-Carboxy-ethyl)-3-{6-[3,5-di-pyridin-2-yl-phenoxy]-hexyl}-phenoxy)-butyric acid]	0.97
O=C(O)CCCOc1cccc(CCCCCCOc2cc(-c3ccccc3)cc(-c3ccccc3F)c2)c1CCC(=O)O [Example 97, 4-{2-(2-Carboxy-ethyl)-3-[6-(2-fluoro-[1,1′;3′,1″]terphenyl-5′-yloxy)-hexyl]-phenoxy}-butyric acid]	0.25
Cc1cc(C(F)(F)F)c(-c2cc(OCCCCCCc3cccc(OCCCC(=O)O)c3CCC(=O)O)cc(-c3ccsc3)c2)c(=O)n1C [Example 28, 4-(2-(2-Carboxy-ethyl)-3-{6-[3-(1,6-dimethyl-2-oxo-4-trifluoromethyl-1,2-dihydro-pyridin-3-yl)-5-thiophen-3-yl-phenoxy]-hexyl}-phenoxy)-butyric acid]	99.4
O=C(O)CCCOc1cccc(CCCCCCOc2cc(-c3ccncc3)cc(-c3ccncc3)c2)c1CCC(=O)O [Example 1, 4-{2-(2-Carboxy-ethyl)-3-[6-(3,5-di-pyridin-4-yl-phenoxy)-hexyl]-phenoxy}-butyric acid]	0.07
O=C(O)CCCOc1cccc(CCCCCC#Cc2cc(-c3ccccc3)cc(-c3ccccc3)c2)c1CCC(=O)O [Example 48, 4-[2-(2-Carboxy-ethyl)-3-(7-[1,1′;3′,1″]terphenyl-5′-yl-hept-6-ynyl)-phenoxy]-butyric acid]	2.69
O=C(O)CCCOc1cccc(CCCCCCOc2cc(-c3ccccc3)cc(-c3ccsc3)c2)c1CCC(=O)O [Example 13, 4-{2-(2-Carboxy-ethyl)-3-[6-(5-thiophen-3-yl-biphenyl-3-yloxy)-hexyl]-phenoxy}-butyric acid]	0.36
O=C(O)CCCOc1cccc(CCCCCCOc2cc(-c3ccccc3)cc(-c3ccccc3)c2)c1CCC(=O)O [Example 2, 4-{2-(2-Carboxy-ethyl)-3-[6-([1,1′,3,1″]terphenyl-5′-yloxy)-hexyl]-phenoxy}-butyric acid]	0.21
O=C(O)CCCOc1cccc(CCCCCCOc2cc(-c3ccncc3)cc(-c3cccc(F)c3)c2)c1CCC(=O)O [Example 18, 4-{2-(2-Carboxy-ethyl)-3-[6-(3′-fluoro-5-pyridin-4-yl-biphenyl-3-yloxy)-hexyl]-phenoxy}-butyric acid]	0.18
O=C(O)CCCOc1cccc(CCCCCCOc2cc(-c3ccsc3)cc(-c3ccnc(Cl)c3)c2)c1CCC(=O)O [Example 15]	0.57
CN(C)c1ccc(-c2cc(OCCCCCCc3cccc(OCCCC(=O)O)c3CCC(=O)O)cc(-c3ccc(Cl)c(F)c3)c2)cc1 [Example 63, 4-{2-(2-Carboxy-ethyl)-3-[6-(4-chloro-4″-dimethylamino-3-fluoro-[1,1′;3′,1″]terphenyl-5′-yloxy)-hexyl]-phenoxy}-butyric acid]	59.8
COc1ccc(-c2cc(OCCCCCCc3cccc(OCCCC(=O)O)c3CCC(=O)O)cc(-c3ccc(OC)cc3)c2)cc1 [Example 88, 4-{2-(2-Carboxy-ethyl)-3-[6-(4,4″-dimethoxy-[1,1′;3′,1″]terphenyl-5′-yloxy)-hexyl]-phenoxy}-butyric acid]	0.61
O=C(O)CCCOc1cccc(CCCCCCSc2cc(-c3ccccc3)cc(-c3ccccc3)c2)c1CCC(=O)O [Example 7, 4-{2-(2-Carboxy-ethyl)-3-[6-([1,1′;3′,1″]terphenyl-5′-ylsulfanyl)-hexyl]-pheoxy}-butyric acid]	75
Cc1cc(-c2cc(OCCCCCCc3cccc(OCCCC(=O)O)c3CCC(=O)O)cc(-c3ccc(N(C)C)cc3)c2)ccc1F [Example 65, 4-{2-(2-Carboxy-ethyl)-3-[6-(4″-dimethylamino-4-fluoro-3-methyl-[1,1′;3′,1″]terphenyl-5′-yloxy)-hexyl]-phenoxy}-butyric acid]	0.47
